Data from patent US7449488B2, “Pyrazolopyrimidines as protein kinase inhibitors” (priority 2002, dated 2008).

Target: T1, CDK2 (cyclin A or E-dependent; cyclin-CDK2 complexes) (Homo sapiens, UniProt P24941)
T1 construct: made in house; host or cells: SF9 insect cells (baculovirus)
Test: CDK2 in vitro kinase assay (cyclin A or E-dependent), SPA
Type: biochemical

Structure (SMILES) | IC50 [nM]
CCc1cn2ncc(Br)c2nc1C | 100
Cc1nc2c(Br)cnn2cc1CCO | 300
OCC[C@@H]1CCCCN1c1ccn2ncc(Br)c2n1 | 30
